From PubChem BioAssay AID179 (DTP/NCI, 2004)
Several values for one entry are separate records, joined by “and”; a condition that tells them apart may be missing. Equal values may be shown once. Activity calls are given as the source filed them.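 The calls were made as follows: active = compounds giving half or more protection of infected cells from virus-caused growth loss, again on retest; inactive = the rest.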 Where a SMILES comes first, the peptide text is derived from it. [ ]: non-standard residue; d: D form. The star is where a group is joined. ξ: configuration not given here. Boc = CC(C)(C)OC(=O)*; ξV = CC(C)C(N)C(=O)O; OBn = c1ccc(CO*)cc1

Test system: CEM cells HIV-1 protection, formazan growth assay
Test: NCI AIDS Antiviral Assay
Details: for IC50: measured here: growth of uninfected CEM cells
In short: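 Human CEM cells, uninfected and HIV-1-infected, exposed to five drug concentrations; growth measured by soluble formazan assay and scored as percent protection from infection, with protecting compounds retested.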

| Compound | EC50 [µM] | IC50 | outcome |
| --- | --- | --- | --- |
| CN(C)c1ccc(/C=C2\C=Cc3ccccc32)c(F)c1 | > 14.1 | > 14.1 µM |  |
| C/C=C(\CCC1NCCc2c1[nH]c1ccccc21)[Si](C)(C)C (configuration not stated) |  |  | inactive |
| CN(CCCn1ccnc1[N+](=O)[O-])CCCn1ccnc1[N+](=O)[O-] | > 200 | 83.2 µM |  |
| CSc1ncc2c(n1)sc1c(=O)n(-c3ccccc3)cnc12 | > 200 | > 200 µM |  |
| OC1CCOc2ccccc21 (configuration not stated) | > 200 | > 200 µM |  |
| COc1cc(C2(C)OC(=O)c3ccccc32)c(OC)c2ccccc12 (configuration not stated) | > 44.7 | 7.76 µM |  |
| CCOC(=O)[C@H]1C[C@H]2O[C@H]2C[C@@H]1C |  |  | inactive |
| COc1cc2c(cc1OC)C(C1(O)CCCCC1)NCC2 (configuration not stated) | > 851 | 457 µM |  |
| C=CCC(CC(CC=C)C(=O)O)C(=O)O (configuration not stated) | > 1170 | > 1170 µM |  |
| CNC(=S)/C(C#N)=C(\N)N1CCCC1 | > 200 | > 200 µM |  |
| Cc1cc2ccc(=O)oc2c2c1OC(C)(C)[C@H](OC(=O)C13CCC(C)(C(=O)O1)C3(C)C)[C@@H]2OC(=O)C12CCC(C)(C(=O)O1)C2(C)C (some centres not stated) | 0.562 | 24 µM |  |
| O=c1c2cc(Br)ccc2n(C2OC(CO)C(O)C(O)C2O)c(=S)n1-c1ccccc1 (configuration not stated) | > 52.5 | > 52.5 µM |  |
| O=C1CN2Cc3cc(N4CCOCC4)ccc3N=C2N1 | > 257 | 40.7 µM |  |
| COC(OC)c1c2c(O)c3c(O)c(C)c4c(c3c1O)C(=O)C(C)(O/C=C/C(OC)C(C)C(OC(C)=O)C(C)C(O)C(C)C(O)C(C)/C=C/C=C(/C)C(=O)N2)O4 (configuration not stated) | > 200 | 25.1 µM |  |
| O=Cc1ccc(-c2ccc(S(=O)(=O)O)cc2)o1 | > 200 | 93.3 µM |  |
| CCC(=C(C#N)C#N)c1cc(OC)c(OC)c(OC)c1 | > 26.3 | > 26.3 µM |  |
| O=c1cc2oc3cc(O)c(O)cc3c(-c3ccccc3)c-2cc1O | > 200 | 39.8 µM and 83.2 µM |  |
| Nc1ncnc2c1ncn2C1SC(CO)C(O)C1O (configuration not stated) | 45.7 | 148 µM |  |
| CCC1(CC)COP(=S)(S)OC1 | > 200 | > 200 µM |  |
| O=c1[nH]ncc2c1Sc1cn[nH]c(=O)c1S2 | > 10.7 | > 10.7 µM |  |
| c1cc(-c2nc3sc(-c4ccncc4)nc3s2)ccn1 | > 24.5 | > 24.5 µM |  |
| CC(C)C(NC(=O)OC(C)(C)C)C(=O)NCC(=O)OCc1ccccc1 (configuration not stated) (Boc-[ξV]-Gly-OBn) | > 200 | 28.2 µM |  |

| Compound | EC50 [µM] | IC50 | outcome |
| --- | --- | --- | --- |
| O=P(Nc1cccc(Cl)c1)(Oc1ccccc1)N(CCCl)CCCl (configuration not stated) | > 17.8 | 6.46 µM |  |
| COc1cc2c(c(OC)c1OC)C(=O)[C@@H](O)[C@H]2NC(N)=O | > 200 | > 200 µM |  |
| COC(=O)[C@H](Cc1c[nH]c2ccccc12)NC(=O)OCC1OC(n2cc(C)c(=O)[nH]c2=O)CC1N=[N+]=[N-] (some centres not stated) | > 158 | 132 µM |  |
| CC(=O)c1c(O)c(C)c(O)c2c1OC1=CC(=O)C(C(C)=O)C(=O)C12C (configuration not stated) | > 200 |  |  |
| O=C(O)c1nc2ccccc2n2cccc12 | > 200 | > 200 µM |  |
| O=C1C=C(NC(=O)c2ccc(Cl)cc2)c2ncccc2C1=O |  |  | inactive |
| S=C1CCCCCN1 | > 1950 | 1020 µM |  |
| Cc1cn(C2CC(N=[N+]=[N-])C(COC(=O)CCCCCCCCCc3ccccc3)O2)c(=O)[nH]c1=O (configuration not stated) | 0.129 | 110 µM |  |
| [N-]=[N+]=NC1C2CC3C4CC5CC3[C@H](C2)C(C5)C41 (some centres not stated) | > 81.3 | > 81.3 µM |  |
| C=C(C)c1nc(Oc2ccccc2)nc(Oc2ccccc2)n1 | > 200 | 3.55 µM |  |
| C1CCN(CCCSSCCCN2CCCCC2)CC1 | > 200 | 91.2 µM |  |
| Cc1nc(Nc2nnc(-c3cc([N+](=O)[O-])cc([N+](=O)[O-])c3C)o2)sc1C(=O)CC(=O)Cc1nc2ccc(Cl)cc2[nH]c1=O | > 57.5 | > 57.5 µM |  |
| CCc1ccccc1NC(=O)C1=C(C)NC(C)=C(C(=O)Nc2ccccc2CC)C1c1cccc([N+](=O)[O-])c1 | > 19.1 | > 19.1 µM |  |
| CCCCCCN(CCCCCC)C1=CC(=O)C(=O)c2ccccc21 | > 95.5 | 16.6 µM |  |
| COc1ccc(NC(=S)N=Nc2c(O)[nH]c3ccccc23)cc1 | > 200 |  |  |
| N#Cc1nc(C2CCC(=O)O2)oc1N (configuration not stated) | > 200 | > 200 µM |  |
| N.N.N.N.N.O=C([O-])c1nn[n-]n1.[Cl-].[Co+3] | > 16.2 | > 16.2 µM |  |
| O=C1C2C(C(=O)N1c1ccccc1)C1(Br)c3ccccc3C2(Br)C2C(=O)N(c3ccccc3)C(=O)C21 (configuration not stated) |  |  | inactive |
| OC[C@@H](O)[C@H]1NC[C@@H](O)[C@H]1O | > 200 | > 200 µM |  |
| CCCCCCCCCCCC(=O)OCCNC(=O)C[n+]1ccccc1 | > 200 | > 200 µM |  |
| CCOP(=O)(OCC)C(c1ccccc1)N(C(=O)NC(F)(F)F)c1ccc(C)cc1 (configuration not stated) | > 200 | > 200 µM |  |
| O=c1[nH]c(N/N=C\C(O)C(O)C(O)C(O)CO)nc2ccccc12 (configuration not stated) | > 200 | > 200 µM |  |
